According to PMC3380923, “Structure Analysis of Entamoeba histolytica DNMT2 (EhMeth)” (PLoS ONE, 2012):

Biological target: T1, EhMeth (Entamoeba histolytica, UniProt Q6Q386)
T1 construct: gene meth; GST fusion from pGEX6-P3 in E. coli BL21(DE3), GST cleaved off with PreScission protease; one molecule per asymmetric unit
T1 sequence (Q6Q386 1-322): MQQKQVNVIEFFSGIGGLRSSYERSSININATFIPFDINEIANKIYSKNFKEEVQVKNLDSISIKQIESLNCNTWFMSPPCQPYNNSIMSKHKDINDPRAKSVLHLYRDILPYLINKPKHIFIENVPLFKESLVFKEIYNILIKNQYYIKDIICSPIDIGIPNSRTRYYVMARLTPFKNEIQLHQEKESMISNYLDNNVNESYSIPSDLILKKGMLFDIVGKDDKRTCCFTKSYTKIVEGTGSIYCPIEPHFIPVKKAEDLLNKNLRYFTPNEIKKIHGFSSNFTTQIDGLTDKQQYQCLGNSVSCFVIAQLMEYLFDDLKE
Experiment: X-ray crystal structure, […] Å
Settings: co-crystallised with 150x molar excess AdoHcy, pH 6.5, 20 °C; cofactor-binding pocket

## Nc1ncnc2c1ncn2[C@@H]1O[C@H](CSCC[C@H](N)C(=O)O)[C@@H](O)[C@H]1O [AdoHcy]
  X-ray crystal structure, 2.15 Å: the crystal structure of the binary complex comprising EhMeth and AdoHcy is presented
